Columns and labels:
[1] = Suspension crystallization: relative thermodynamic stability of Forms I and II; type: physicochemical; details: mixture of Forms I and II suspended in toluene, stirred at least three days, solid identified by PXRD
Experimental: Methods. Suspension crystallization. The relative stability relationship between Forms I and II at a specific temperature was bracketed by suspending a mixture of the two polymorphs in toluene in a closed glass vial that was equilibrated at the temperature of interest. Excess solid of one polymorph was first added to saturate toluene in a glass vial at the chosen temperature. The other polymorph was added at least half an hour later. The suspension was stirred continuously for at least three days. A portion of the suspension was withdrawn and immediately filtered. The filtered solid was analyzed using PXRD to identify the equilibrium solid at that temperature. […] By repeating the experiment at different temperatures, the Tt was bracketed.
Suspension Crystallization. […] The Tt must be approximately 70 to about 73° C.

[2] = Relative stability of crystal forms at ambient temperature and pressure; type: physicochemical
Text: has been described in U.S. Pat. Nos. 5,466,823 and 5,521,207. The description describes a synthesis of the compound, but is silent with respect to the crystalline form which is obtained. […] The forms can be distinguished by their PXRD (powder X-ray diffraction) patterns.

temperature at which the form is thermodynamically more stable (equilibrium solid phase) [1] | SMILES | stability of crystal form relative to the other form [2]
≥ 71.5 °C | NS(=O)(=O)c1ccc(-n2nc(C(F)(F)F)cc2-c2ccc(F)cc2)cc1 [Form II, 4-[5-(4-fluorophenyl)-3-(trifluoromethyl)-1H-pyrazol-1-yl]-benzenesulfonamide] | unstable with respect to another form, Form I
≤ 71.0 °C | NS(=O)(=O)c1ccc(-n2nc(C(F)(F)F)cc2-c2ccc(F)cc2)cc1 [Form I, 4-[5-(4-fluorophenyl)-3-(trifluoromethyl)-1H-pyrazol-1-yl]-benzenesulfonamide] | –

Reference: patent US20100093820A1, “CRYSTALLINE PYRAZOLES” (PHARMACIA & UPJOHN COMPANY LLC, priority 2004, published 2010)
